Measured values: PubChem BioAssay AID192 (DTP/NCI, 2004)
Where “and” joins values, the source holds several entries; their conditions need not be identical. Identical values can stand only once. Toxic doses and inconclusive results are not listed.

Test system: BDF1 mice, B16 melanoma ip, median survival T/C
Assay: NCI In Vivo Anticancer Drug Screen. Data for tumor model B16 Melanoma (intraperitoneal) in B6D2F1 (BDF1) mice
Settings: endpoint: median survival time, higher = longer survival
Outline: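 Values are ratios of treated (T) to vehicle-control (C) measurements of survival or tumor size in tumor-bearing mice.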

[1] = dose: 50.0 mg/kg/injection, schedule: Q01DX009 (ip), vehicle: saline
[2] = dose: 6.25 mg/kg/injection, schedule: Q01DX009 (ip), vehicle: saline
[3] = dose: 12.5 mg/kg/injection, schedule: Q01DX009 (ip), vehicle: saline
[4] = dose: 25.0 mg/kg/injection, schedule: Q01DX009 (ip), vehicle: saline
[5] = dose: 100.0 mg/kg/injection, schedule: Q01DX009 (ip), vehicle: Klucel (hydroxypropylcellulose) (HPC)
[6] = dose: 200.0 mg/kg/injection, schedule: Q01DX009 (ip), vehicle: Klucel (hydroxypropylcellulose) (HPC)
[7] = dose: 6.25 mg/kg/injection, schedule: Q01DX009 (ip), vehicle: saline with Tween-80
[8] = dose: 12.5 mg/kg/injection, schedule: Q01DX009 (ip), vehicle: saline with Tween-80
[9] = dose: 25.0 mg/kg/injection, schedule: Q01DX009 (ip), vehicle: saline with Tween-80
[10] = dose: 50.0 mg/kg/injection, schedule: Q01DX009 (ip), vehicle: Klucel (hydroxypropylcellulose) (HPC)

For CCN(CC)CCCC(C)NCCCCNC(C)CCCN(CC)CC (stereo unspecified), the T/C (dose: 4.69 mg/kg/injection, schedule: Q01DX009 (ip), vehicle: alcohol) was 96 % of control, the T/C (dose: 6.25 mg/kg/injection, schedule: Q01DX009 (ip), vehicle: alcohol) was 115 % of control and the T/C (dose: 9.38 mg/kg/injection, schedule: Q01DX009 (ip), vehicle: alcohol) was 104 % of control. For the same molecule, the T/C (dose: 11.0 mg/kg/injection, schedule: Q01DX009 (ip), vehicle: water) was 122 % of control, the T/C (dose: 12.5 mg/kg/injection, schedule: Q01DX009 (ip), vehicle: alcohol) was 88 % of control and the T/C (dose: 16.5 mg/kg/injection, schedule: Q01DX009 (ip), vehicle: water) was 94 % of control. The T/C (dose: 25.0 mg/kg/injection, schedule: Q01DX009 (ip), vehicle: water) was 87 % of control and 224 % of control.
Cn1ccccc1=O was tested, and the T/C [1] was 124 % of control, the T/C (dose: 100.0 mg/kg/injection, schedule: Q01DX009 (ip), vehicle: saline) was 120 % of control and the T/C (dose: 200.0 mg/kg/injection, schedule: Q01DX009 (ip), vehicle: saline) was 117 % of control.
In the case of CN(C)CCCN1c2ccccc2CCc2ccccc21, the T/C (dose: 3.12 mg/kg/injection, schedule: Q01DX009 (ip), vehicle: saline) was 95 % of control, the T/C [2] was 102 % of control and the T/C [3] was 104 % of control. For the same molecule, the T/C [4] was 93 % of control and the T/C [1] was 104 % of control.
For CCCCNC(=O)Nc1ccc(CC)cc1, the T/C [5] was 100 % of control and the T/C [6] was 91 % of control.
For NC(=S)N/N=C/c1cccc(CC(O)(C(F)(F)F)C(F)(F)F)n1, the T/C [7] was 95 % of control, the T/C (dose: 6.25 mg/kg/injection, schedule: Q04DX003 (ip), vehicle: saline with Tween-80) was 116 % of control and the T/C [8] was 90 % of control. The T/C (dose: 12.5 mg/kg/injection, schedule: Q04DX003 (ip), vehicle: saline with Tween-80) was 116 % of control, the T/C [9] was 88 % of control and the T/C (dose: 25.0 mg/kg/injection, schedule: Q04DX003 (ip), vehicle: saline with Tween-80) was 100 % of control.
In the case of COCC1OC(OC2OCC3OC4(OCC(O)(C(C)OC)C5OCOC54)OC3C2OC)C(OC)C(O)C1OC1OC(C)C(OC)C(OC2OC(C)C3OC4(CC(O)C(OC5CC(OC6CC(C)([N+](=O)[O-])C(OC)C(C)O6)C(OC(=O)c6c(C)c(Cl)c(O)c(Cl)c6OC)C(C)O5)C(C)O4)OC3(C)C2O)C1O (stereo unspecified), the T/C [2] was 97 % of control, the T/C [3] was 95 % of control and the T/C [4] was 100 % of control. The T/C [1] was 101 % of control.
In the case of Cc1ccc(N)c(Br)c1, the T/C [9] was 88 % of control, the T/C (dose: 50.0 mg/kg/injection, schedule: Q01DX009 (ip), vehicle: saline with Tween-80) was 88 % of control and the T/C (dose: 100.0 mg/kg/injection, schedule: Q01DX009 (ip), vehicle: saline with Tween-80) was 91 % of control.
c1cc[c]([Sn][c]2ccccc2)cc1 was tested, and the T/C (dose: 0.8 mg/kg/injection, schedule: Q04DX003 (ip), vehicle: saline with Tween-80) was 97 % of control, the T/C (dose: 1.2 mg/kg/injection, schedule: Q04DX003 (ip), vehicle: saline with Tween-80) was 97 % of control and the T/C (dose: 1.25 mg/kg/injection, schedule: Q01DX009 (ip), vehicle: saline) was 95 % of control. For the same molecule, the T/C (dose: 1.8 mg/kg/injection, schedule: Q04DX003 (ip), vehicle: saline with Tween-80) was 100 % of control, the T/C (dose: 2.5 mg/kg/injection, schedule: Q01DX009 (ip), vehicle: saline) was 111 % of control and the T/C (dose: 2.5 mg/kg/injection, schedule: Q04DX003 (ip), vehicle: saline with Tween-80) was 121 % of control. For the same molecule, the T/C (dose: 5.0 mg/kg/injection, schedule: Q01DX009 (ip), vehicle: saline) was 109 % of control and the T/C (dose: 5.0 mg/kg/injection, schedule: Q04DX003 (ip), vehicle: saline with Tween-80) was 115 % of control.
NC(N)=NC1CCCC1 was tested, and the T/C [3] was 97 % of control, the T/C [4] was 114 % of control and the T/C [1] was 98 % of control.
With O=C(Cl)C1(Br)CC2c3ccccc3C1([N+](=O)[O-])c1ccccc12 (stereo unspecified) the T/C (dose: 12.5 mg/kg/injection, schedule: Q01DX009 (ip), vehicle: Klucel (hydroxypropylcellulose) (HPC)) was 100 % of control, the T/C (dose: 25.0 mg/kg/injection, schedule: Q01DX009 (ip), vehicle: Klucel (hydroxypropylcellulose) (HPC)) was 97 % of control and the T/C [10] was 97 % of control. The T/C [5] was 91 % of control and the T/C [6] was 88 % of control.
In the case of c1ccc2c(c1)CCc1ccccc1C2NC1=NCCO1, the T/C [7] was 104 % of control, the T/C [8] was 100 % of control and the T/C [9] was 92 % of control.
CC(=O)CC(=O)Oc1ccccc1OC(C)=O was tested, and the T/C [10] was 94 % of control and the T/C [5] was 100 % of control.
